Results: patent publication US20240018161A1, “MODULATORS OF CYSTIC FIBROSIS TRANSMEMBRANE CONDUCTANCE REGULATOR” (VERTEX PHARMACEUTICALS INCORPORATED, priority 2020, published 2024)
Read-outs that look alike come from different tables or passages of the source.

Molecular target: CFTR-mediated chloride transport in human intestinal epithelial enteroid cells (Homo sapiens, UniProt P13569)
Assay: Membrane potential dye, Enteroid Assay A
Type: cell-based
Settings: for EC50: read-out: Ent. A EC50
Method: Base medium (ADF+++) consisted of Advanced DMEM/Ham's F12, 2 mM Glutamax, 10 mM HEPES, […] penicillin/streptomycin.
Bath 1 Buffer consisted of 1 mM MgCl2, 160 mM NaCl, 4.5 mM KCl, 10 mM HEPES, 10 mM Glucose, 2 mM CaCl2.
Chloride Free Buffer consisted of 1 mM Magnesium Gluconate, 2 mM Calcium Gluconate, 4.5 mM Potassium Gluconate, 160 mM Sodium Gluconate, 10 mM HEPES, 10 mM Glucose.
Bath1 Dye Solution consisted of Bath 1 Buffer, 0.04% Pluronic F127, 20 μM Methyl Oxonol, 30 μM CaCCinh-A01, 30 μM Chicago Sky Blue.
Chloride Free Dye Solution consisted of Chloride Free Buffer, 0.04% Pluronic F127, 20 μM Methyl Oxonol, 30 μM CaCCinh-A01, 30 μM Chicago Sky Blue.
3. Enteroid Cell Harvesting and Seeding
Cells were recovered in cell recovery solution, collected by centrifugation at 650 rpm for 5 min at 4° C., resuspended in TryPLE and incubated for 5 min at 37° C. Cells were then collected by centrifugation at 650 rpm for 5 min at 4° C. and resuspended in IEMM containing 10 μM ROCK inhibitor (RI).
4. Membrane Potential Dye, Enteroid Assay A
Briefly, cells were washed 5 times in Bath 1 Buffer. Bath 1 Dye Solution was added, and the cells were incubated for 25 min at room temperature. Following dye incubation, cells were washed 3 times in Chloride Free Dye Solution. Chloride transport was initiated by addition of Chloride Free Dye Stimulation Solution and the fluorescence signal was read for 15 min. […] Chloride transport was then expressed as a percentage of the chloride transport following treatment with 3 μM N-[(6-amino-2-pyridyl)sulfonyl]-6-(3-fluoro-5-isobutoxy-phenyl)-2-[(4S)-2,2,4-trimethylpyrrolidin-1-yl]pyridine-3-carboxamide, 3 μM (R)-1-(2,2-difluorobenzo[d][1,3]dioxol-5-yl)-N-(1-(2,3-dihydroxypropyl)-6-fluoro-2-(1-hydroxy-2-methylpropan-2-yl)-1H-indol-5-yl)cyclopropanecarboxamide and 300 nM acute N-[2,4-bis(1,1-dimethylethyl)-5-hydroxyphenyl]-1,4-dihydro-4-oxoquinoline-3-carboxamide triple combination control (% Activity).

[1] = enteroid cells incubated with test compound 18-24 hours, acute 10 μM forskolin and 300 nM N-[2,4-bis(1,1-dimethylethyl)-5-hydroxyphenyl]-1,4-dihydro-4-oxoquinoline-3-carboxamide
[2] = percentage of chloride transport of triple combination control (3 μM N-[(6-amino-2-pyridyl)sulfonyl]-6-(3-fluoro-5-isobutoxy-phenyl)-2-[(4S)-2,2,4-trimethylpyrrolidin-1-yl]pyridine-3-carboxamide based)

Sequence of CFTR-mediated chloride transport in human intestinal epithelial enteroid cells (P13569 with tags, fused parts or gaps DEL508-508): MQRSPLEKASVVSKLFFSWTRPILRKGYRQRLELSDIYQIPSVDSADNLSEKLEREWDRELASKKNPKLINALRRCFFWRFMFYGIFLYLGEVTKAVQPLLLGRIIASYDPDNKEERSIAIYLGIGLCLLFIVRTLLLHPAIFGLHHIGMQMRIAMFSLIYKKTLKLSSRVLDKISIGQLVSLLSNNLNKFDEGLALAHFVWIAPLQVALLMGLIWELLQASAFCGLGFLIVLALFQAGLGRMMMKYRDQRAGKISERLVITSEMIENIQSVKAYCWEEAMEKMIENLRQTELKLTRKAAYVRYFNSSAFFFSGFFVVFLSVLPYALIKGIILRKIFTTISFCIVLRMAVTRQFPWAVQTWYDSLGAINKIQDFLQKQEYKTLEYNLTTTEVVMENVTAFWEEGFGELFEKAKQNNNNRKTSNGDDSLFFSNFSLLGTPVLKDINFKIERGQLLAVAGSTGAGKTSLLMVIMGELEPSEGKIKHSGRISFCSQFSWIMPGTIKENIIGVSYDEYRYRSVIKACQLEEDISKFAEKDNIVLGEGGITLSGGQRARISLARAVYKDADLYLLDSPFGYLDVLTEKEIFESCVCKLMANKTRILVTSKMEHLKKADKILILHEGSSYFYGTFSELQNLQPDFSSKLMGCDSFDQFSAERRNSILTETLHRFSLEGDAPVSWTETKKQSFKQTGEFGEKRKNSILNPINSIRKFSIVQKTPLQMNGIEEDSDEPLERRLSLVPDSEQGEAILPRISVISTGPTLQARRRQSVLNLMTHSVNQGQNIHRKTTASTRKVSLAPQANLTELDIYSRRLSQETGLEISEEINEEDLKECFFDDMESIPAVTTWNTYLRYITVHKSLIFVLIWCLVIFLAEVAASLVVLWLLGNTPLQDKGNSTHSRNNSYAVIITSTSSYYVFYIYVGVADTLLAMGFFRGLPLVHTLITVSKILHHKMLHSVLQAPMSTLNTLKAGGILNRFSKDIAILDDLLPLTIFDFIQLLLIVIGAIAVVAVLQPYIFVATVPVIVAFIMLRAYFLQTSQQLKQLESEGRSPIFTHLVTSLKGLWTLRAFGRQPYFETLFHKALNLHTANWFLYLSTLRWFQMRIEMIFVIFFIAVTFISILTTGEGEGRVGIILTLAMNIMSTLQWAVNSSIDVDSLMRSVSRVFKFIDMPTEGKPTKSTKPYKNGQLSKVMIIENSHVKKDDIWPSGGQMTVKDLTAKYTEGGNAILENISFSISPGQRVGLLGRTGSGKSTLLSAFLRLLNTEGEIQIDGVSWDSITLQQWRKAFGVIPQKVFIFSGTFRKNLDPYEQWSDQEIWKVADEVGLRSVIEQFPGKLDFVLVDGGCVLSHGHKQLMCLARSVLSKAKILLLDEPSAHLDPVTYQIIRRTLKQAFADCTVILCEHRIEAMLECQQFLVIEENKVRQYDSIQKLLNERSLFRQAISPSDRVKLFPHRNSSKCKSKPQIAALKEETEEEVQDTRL

## Cc1cccc(C)c1-c1cc2nc(n1)NS(=O)(=O)c1cccc(c1)CN1CC(CNCC1=O)O2 (stereo not drawn) [Compound 76, 12-(2,6-Dimethylphenyl)-15-oxa-8λ^6-thia-1,9,11,18,22-pentaazatetracyclo[14.4.1.13,7.110,14]tricosa-3(23),4,6,10,12,14(22)-hexaene-8,8,20-trione]
Enteroid Assay A
  Ent. A Max Activity (%): + (+ is <30%)

## Cc1cccc(C)c1-c1cc2nc(n1)NS(=O)(=O)c1cc(n(C)n1)C(=O)N1Cc3ccccc3[C@H](C1)O2 [Compound 341]
[1]
  EC50: 3000 to 30000 nM
[2]
  Ent. A Max Activity (%): ++ (++ is 30-60%)

## Cc1cccc(C)c1-c1cc2nc(n1)NS(=O)(=O)c1cccc(c1)C(=O)N1C[C@@H](CN(C3CC4(CCCC4)C3)[C@@H](CC(C)C)C1)O2 [Compound 156]
Enteroid Assay A
  Ent. A Max Activity (%): +++ (+++ is >600%)
  EC50: < 1000 nM

## Cc1cccc(C)c1-c1cc2nc(n1)NS(=O)(=O)c1cccc(c1)C(=O)N1CCCN(CCC3(C(F)(F)F)CC3)CC(C1)O2 (stereo not drawn) [Compound 358]
Enteroid Assay A
  Ent. A Max Activity (%): ++ (++ is 30-60%)
  EC50: < 1000 nM

## Cc1cccc(C)c1-c1cc2nc(n1)NS(=O)(=O)c1cncc(c1)C(=O)N1Cc3ccccc3[C@@H](C1)O2 [Compound 360]
[2]
  Ent. A Max Activity (%): + (+ is <300%)

## Cc1cccc(C)c1-c1cc2nc(n1)NS(=O)(=O)c1cccc(c1)C(=O)N1CCN(Cc3ccn(C)n3)CC(C1)O2 (stereo not drawn) [Compound 49]
[1]
  EC50: 3000 to 30000 nM
[2]
  Ent. A Max Activity (%): +++ (+++ is >60%)

## Cc1cccc(C)c1-c1cc2nc(n1)NS(=O)(=O)c1cccc(c1)C(=O)N1CCN(C(=O)CC(C)(C)C)C(CO2)C1 (stereo not drawn) [Compound 304]
[2]
  Ent. A Max Activity (%): ++ (++ is 30-60%)

## Cc1cccc(C)c1-c1cc2nc(n1)NS(=O)(=O)c1cccc(c1)C(=O)N1CCCC(O2)C1CC(C)C (single isomer, unassigned) [Compound 231, 18-(2,6-Dimethylphenyl)-22-(2-methylpropyl)-2-oxa-14λ^6-thia-7,15,17,20-tetraazatetracyclo[14.3.1.13,7.19,13]docosa-1(20),9(21),10,12,16,18-hexaene-8,14,14-trione]
[1]
  EC50: < 1000 nM
[2]
  Ent. A Max Activity (%): +++ (+++ is >60%)

## Cc1cccc(C)c1-c1cc2nc(n1)NS(=O)(=O)c1cccc(c1)C(=O)N1CCN(C3CCCC3)C[C@H](C1)O2 [Compound 6, (16R)-18-cyclopentyl-12-(2,6-dimethylphenyl)-8,8-dioxo-15-oxa-8λ^6-thia-1,9,11,18,22-pentazatetracyclo[14.4.1.13,7.110,14]tricosa-3,5,7(23),10(22),11,13-hexaen-2-one]
Enteroid Assay A
  Ent. A Max Activity (%): +++ (+++ is >600%)
  EC50: < 1000 nM

## Cc1cccc(C)c1-c1cc2nc(n1)NS(=O)(=O)c1cccc(c1)C(=O)N1CCN(C)C(CO2)C1 (stereo not drawn) [Compound 316]
[2]
  Ent. A Max Activity (%): + (+ is <300%)

## Cc1cccc(C)c1-c1cc2nc(n1)NS(=O)(=O)c1cccc(c1)C(=O)N1CCN(Cc3nccs3)C[C@@H]1CO2 [Compound 275]
[1]
  EC50: 3000 to 30000 nM
[2]
  Ent. A Max Activity (%): +++ (+++ is >60%)

## Cc1cccc(C)c1-c1cc2nc(n1)NS(=O)(=O)c1cccc(c1)C(=O)N1CCN(CCC(C)(C)C)C(CO2)C1 (stereo not drawn) [Compound 177, 18-(3,3-Dimethylbutyl)-12-(2,6-dimethylphenyl)-15-oxa-8λ^6-thia-1,9,11,18,22-pentaazatetracyclo[15.3.1.13,7.110,14]tricosa-3(23),4,6,10(22),11,13-hexaene-2,8,8-trione]
[1]
  EC50: < 1000 nM
[2]
  Ent. A Max Activity (%): ++ (++ is 30-60%)

## Cc1cccc(C)c1-c1cc2nc(n1)NS(=O)(=O)c1cccc(c1)CN1Cc3ccccc3C(C1)O2 (stereo not drawn) [Compound 208, 12-(2,6-Dimethylphenyl)-15-oxa-8λ^6-thia-1,9,11,25-tetraazapentacyclo[14.7.1.13,7.110,14.017,22]hexacosa-3(26),4,6,10,12,14(25),17(22),18,20-nonaene-8,8-dione]
[1]
  EC50: < 1000 nM
[2]
  Ent. A Max Activity (%): ++ (++ is 30-60%)

## Cc1cccc(C)c1-c1cc2nc(n1)NS(=O)(=O)c1cccc(c1)C(=O)N1C[C@@H](CN(C3CCC(F)(F)CC3)C[C@H]1CC(C)C)O2 [Compound 142]
Enteroid Assay A
  Ent. A Max Activity (%): +++ (+++ is >600%)
  EC50: < 1000 nM

## Cc1cccc(C)c1-c1cc2nc(n1)NS(=O)(=O)c1cccc(c1)C(=O)N1CCN(CC3CC(C(=O)O)C3)C[C@H](C1)O2 (stereo partly drawn) [Compound 29]
Enteroid Assay A
  Ent. A Max Activity (%): +++ (+++ is >600%)
  EC50: 3000 to 30000 nM

## Cc1cccc(C)c1-c1cc2nc(n1)NS(=O)(=O)c1cccc(c1)C(=O)N1CC(CC3(CCCC3)C1)O2 (stereo not drawn) [Compound 229, 18′-(2,6-Dimethylphenyl)-2′-oxa-14′λ^6-thia-7′,15′,17′,20′-tetraazaspiro[cyclopentane-1,5′-tetracyclo[14.3.1.13,7.19,13]docosane]-1′(20′),9′,11′,13′(21′),16′,18′-hexaene-8′,14′,14′-trione]
[1]
  EC50: < 1000 nM
[2]
  Ent. A Max Activity (%): ++ (++ is 30-60%)

## Cc1cccc(C)c1-c1cc2nc(n1)NS(=O)(=O)c1cccc(c1)C(=O)N1CCN(Cc3ncccn3)C[C@@H]1CO2 [Compound 286]
[2]
  Ent. A Max Activity (%): + (+ is <300%)

## Cc1cccc(C)c1-c1cc2nc(n1)NS(=O)(=O)c1cccc(c1)C(=O)N1CCN([C@@H](C)C(C)(C)C)C[C@H](C1)O2 (single isomer, unassigned) [Compound 72]
Enteroid Assay A
  Ent. A Max Activity (%): +++ (+++ is >600%)
  EC50: < 1000 nM

## Cc1cccc(C)c1-c1cc2nc(n1)NS(=O)(=O)N1CCc3ccc(cc31)C(=O)N1Cc3ccccc3[C@@H](O2)[C@H]1CC(C)C [Compound 250]
Enteroid Assay A
  Ent. A Max Activity (%): ++ (++ is 30-60%)
  EC50: 1000 to 3000 nM

## Cc1cccc(C)c1-c1cc2nc(n1)NS(=O)(=O)c1cccc(c1)C(=O)N1CCCCC(C1)O2 (stereo not drawn) [Compound 369]
[2]
  Ent. A Max Activity (%): + (+ is <300%)

## Cc1cccc(C)c1-c1cc2nc(n1)NS(=O)(=O)c1cccc(c1)C(=O)N1CCN(C(=O)OC(C)(C)C)C[C@@H]1CO2 [Compound 315]
[1]
  EC50: < 1000 nM
[2]
  Ent. A Max Activity (%): ++ (++ is 30-60%)

## Cc1cccc(C)c1-c1cc2nc(n1)NS(=O)(=O)c1cccc(c1)C(=O)N1CCN(C(C)C)C[C@@H]1CO2 [Compound 165, (8R)-13-(2,6-Dimethylphenyl)-6-(propan-2-yl)-10-oxa-17λ^6-thia-3,6,14,16,23-pentaazatetracyclo[16.3.1.111,15.03,8]tricosa-1(21),11,13,15(23),18(22),19-hexaene-2,17,17-trione]
[1]
  EC50: 3000 to 30000 nM
[2]
  Ent. A Max Activity (%): +++ (+++ is >60%)

## Cc1cccc(C)c1-c1cc2nc(n1)NS(=O)(=O)c1cccc(c1)C(=O)N1CCN(CCC(C)(C)C)C[C@H](O2)[C@H]1CC(C)C [Compound 157]
Enteroid Assay A
  Ent. A Max Activity (%): +++ (+++ is >600%)
  EC50: < 1000 nM

## Cc1cccc(C)c1-c1cc2nc(n1)NS(=O)(=O)c1cccc(c1)C(=O)N1CCN(Cc3ccc(C(C)(C)C)cc3)C[C@H](C1)O2 [Compound 16]
Enteroid Assay A
  Ent. A Max Activity (%): +++ (+++ is >600%)
  EC50: < 1000 nM

## Cc1cccc(C)c1-c1cc2nc(n1)NS(=O)(=O)c1cccc(c1)C(=O)N1CCOC[C@@H]1CO2 [Compound 366]
[1]
  EC50: 3000 to 30000 nM
[2]
  Ent. A Max Activity (%): ++ (++ is 30-60%)

## Cc1cccc(C)c1-c1cc2nc(n1)NS(=O)(=O)c1cccc(c1)C(=O)N1CCc3ccccc3C(C1)O2 (single isomer, unassigned) [Compound 221, 12-(2,6-dimethylphenyl)-15-oxa-8λ^6-thia-1,9,11,26-tetraazapentacyclo[14.8.1.13,7.110,14.017,22]heptacosa-3(27),4,6,10(26),11,13,17,19,21-nonaene-2,8,8-trione]
Enteroid Assay A
  EC50: < 1000 nM

## CC(=O)NCCN1CCN2C(=O)c3cccc(c3)S(=O)(=O)Nc3nc(cc(-c4c(C)cccc4C)n3)OC[C@H]2C1 [Compound 294]
[1]
  EC50: 3000 to 30000 nM
[2]
  Ent. A Max Activity (%): ++ (++ is 30-60%)

## Cc1cccc(C)c1-c1cc2nc(n1)NS(=O)(=O)c1cccc(c1)C(=O)N1CCN(Cc3nccs3)CC(C1)O2 (stereo not drawn) [Compound 52]
[1]
  EC50: 1000 to 3000 nM
[2]
  Ent. A Max Activity (%): ++ (++ is 30-60%)

## Cc1cccc(C)c1-c1cc2nc(n1)NS(=O)(=O)c1cccc(c1)C(=O)N1CCCN(CCC(C)(C)C)CC(C1)O2 (stereo not drawn) [Compound 206, 18-(3,3-Dimethylbutyl)-12-(2,6-dimethylphenyl)-15-oxa-8λ^6-thia-1,9,11,18,23-pentaazatetracyclo[14.5.1.13,7.110,14]tetracosa-3,5,7(24),10,12,14(23)-hexaene-2,8,8-trione]
Enteroid Assay A
  Ent. A Max Activity (%): ++ (++ is 30-60%)
  EC50: < 1000 nM
